Measured values as given in US11576915B2, “Method for treating pulmonary arterial hypertension and associated pulmonary arterial hypertension and daily dosing” (Altavant Sciences GmbH, priority 2019, dated 2023).

Experiments:
[1] = polymorph stability and shelf life; assay type: physicochemical; settings: particularly at temperatures of less than 95° C.
Description: The above-referenced compound can be used to prevent or treat PAH/APAH in either an amorphous or crystalline form. Two different polymorph crystalline forms are identified by x-ray powder diffraction patterns set forth in FIG. 1 (Form 3) and FIG. 2 (Form 1) as well as Tables 1 and 2 (Form 3) and Tables 3 and 4 (Form 1).

[2] = Example 3 healthy subjects QD vs BID: KAR5417 plasma levels; assay type: in vivo, human
Method: (§1) 24 healthy subjects received 800 mg total daily oral doses of RVT-1201 or placebo (PBO), either as single (800 mg QD) or divided (400 mg BID) doses for 14 days across two cohorts (9 active: 3 PBO per cohort). KAR5417 plasma levels and change from Baseline (BSL) PD biomarker data (plasma and urine 5-HIAA) were compared between QD and BID cohorts at day 14. Safety and tolerability were assessed via adverse event (AE) monitoring and laboratory, vital signs and ECG assessments.

[3] = tested on: serotonin biosynthesis; assay: Example 3 healthy subjects QD vs BID: plasma and urine 5-HIAA; assay type: in vivo, human; settings: day 14, change from baseline
Method: as §1

[4] = Example 2 healthy human subjects: pharmacokinetics; assay type: in vivo
Method: (§2) Healthy human subjects (n=˜120) may receive RVT-1201.
(§3) Mean change in plasma 5-HIAA may be about −53% from Day 1 to Day 14, whereas placebo may be about +26%. Interpolation of KAR5417 AUC between 400 mg and 800 mg BID regimens may show 500-600 mg BID in humans will achieve the target exposure associated with efficacy in rat models.

[5] = Example 2 healthy human subjects: safety and tolerability; assay type: in vivo; settings: doses required to achieve clinically-relevant AUC
Method: as §2, §3

[6] = tested on: PAH; assay: SUGEN-hypoxia treatment model for established PAH; assay type: in vivo; settings: rat, oral 100 mg/kg/day
[7] = tested on: serotonin biosynthesis; assay: rat serotonin biomarkers (serum serotonin, urinary 5-HIAA); assay type: in vivo; settings: 30 to 300 mg/kg/day, dose-dependent
Method: RVT-1201 (30 to 300 mg/kg/day) may yield a dose-dependent reduction in rat serum serotonin (−27% to −96%) and 24 h urinary output of 5-HIAA (−45% to −56%). HIAA is a metabolite that reflects total serotonin biosynthesis.

[8] = tested on: PAH; assay: monocrotaline prevention model of PAH; assay type: in vivo; settings: rat, oral 100 mg/kg/day
[9] = tested on: serotonin biosynthesis; assay: Example 2 healthy human subjects: plasma 5-HIAA; assay type: in vivo; settings: 400 mg BID, Day 1 to Day 14
Method: as §3

[10] = tested on: serotonin biomarkers; assay: divided dose pharmacodynamic studies in rats (QD vs BID vs TID); assay type: in vivo, rat
Method: (§4) TPH1 is the rate-limiting enzyme for peripheral biosynthesis of serotonin (5HT), which has been implicated as a causative factor in PAH. RVT-1201 decreased pulmonary vessel wall thickness in 2 PAH rodent models indicating potential to halt/reverse pulmonary remodeling in humans. The median effective dose (100 mg/kg QD) in PAH rat models yielded a ˜35% reduction in 5-HT biosynthesis (based on urinary 5-HIAA, a metabolite of 5HT). […] The example compares reductions in 5-HIAA levels following QD and BID dosing in healthy subjects.

[11] = tested on: PAH; assay: PAH rodent models (Example 3 background); assay type: in vivo, rat
Method: as §4

[12] = Example 3 healthy subjects QD vs BID: safety and tolerability; assay type: in vivo, human
Method: as §1

With `CCOC(=O)[C@@H]1CC2(CCN(c3cc(O[C@H](c4ccc(Cl)cc4-c4ccccc4)C(F)(F)F)nc(N)n3)CC2)CN1` [crystalline Form 3, (S)-ethyl 8-(2-amino-6-((R)-1-(5-chloro-[1,1′-biphenyl]-2-yl)-2,2,2-trifluoroethoxy)pyrimidin-4-yl)-2,8-diazaspiro[4.5]decane-3-carboxylate] as the molecule, how does the “stability and shelf life compared to crystalline Form 1” value [1] read?
Its value is “substantially greater stability and shelf life”.

Which “KAR5417 mean pAUC0-24” value ([2]; RVT-1201 400 mg BID oral, day 14) does the source give for `Nc1nc(O[C@H](c2ccc(Cl)cc2-c2ccccc2)C(F)(F)F)cc(N2CCC3(CC2)CN[C@H](C(=O)O)C3)n1` [KAR5417, (S)-8-(2-amino-6-((R)-1-(5-chloro-[1,1′-biphenyl]-2-yl)-2,2,2-trifluoroeth-oxy)pyrimidin-4-yl)-2,8-diazaspiro[4.5]decane-3-carboxylic acid] here?
Its value is 10400 ng*h/mL.

And the AUC(0-t) ([2]; human, plasma, RVT-1201 800 mg QD oral, day 14, read-out: KAR5417 mean AUC0-24)?
The AUC(0-t) was 9180 ng·h/mL.

Which “mean (±SD) reduction in plasma 5-HIAA” value ([3]; 400 mg BID) does the source give for `CCOC(=O)[C@@H]1CC2(CCN(c3cc(O[C@H](c4ccc(Cl)cc4-c4ccccc4)C(F)(F)F)nc(N)n3)CC2)CN1` [RVT-1201, (S)-ethyl 8-(2-amino-6-((R)-1-(5-chloro-[1,1′-biphenyl]-2-yl)-2,2,2-trifluoroethoxy)pyrimidin-4-yl)-2,8-diazaspiro[4.5]decane-3-carboxylate] here?
Its value is 49.9 (9.52) %.

What about the “mean (±SD) reduction in urinary 5-HIAA” value ([3]; 400 mg BID) of the same molecule?
Its value is 55.5 (10.3) %.

What about the “mean (±SD) reduction in plasma 5-HIAA” value ([3]; 800 mg QD) of the same molecule?
The value was 40.0 (6.32) %.

What about the “mean (±SD) reduction in urinary 5-HIAA” value ([3]; 800 mg QD) of the same molecule?
The value was 45.8 (6.59) %.

And the “human dose achieving target exposure associated with efficacy in rat models” value ([4]; BID, interpolation of KAR5417 AUC between 400 mg and 800 mg BID regimens)?
The value was 500 to 600 mg.

And the “AUC following single doses versus dose” value ([4]; healthy human subjects, standard meals, single doses 200 to −1200 mg)?
Its value is “proportional to dose”.

And the tolerability [5]?
The tolerability was “well tolerated”.

What about the “block or ameliorate PAH” value [6] of the same molecule?
Its value is “may block or ameliorate PAH”.

What about the “reduction in 24 h urinary output of 5-HIAA” value [7] of the same molecule?
Its value is −45% to −56%.

What about the “reduction in rat serum serotonin” value [7] of the same molecule?
Its value is −27% to −96%.

And the “block or ameliorate PAH” value [8]?
The value was “may block or ameliorate PAH”.

And the “mean change in plasma 5-HIAA” value [9]?
Its value is “about −53%”.

What about the “QD dosing versus more frequent dosing, lowering of 5-HT” value ([10]; healthy rats, QD vs BID vs TID) of the same molecule?
The value was “as effective as more frequent dosing”.

What about the “once daily administration versus BID or TID regimens” value ([10]; rats, 75 mg/kg/day) of the same molecule?
Its value is “comparable to BID or TID regimens”.

And the serotonin reduction ([10]; rats, 75 mg/kg/day, divided dose studies)?
The serotonin reduction was roughly 65%.

And the “pulmonary vessel wall thickness” value ([11]; 2 PAH rodent models)?
The value was “decreased”.

What about the median effective dose ([11]; PAH rat models, QD) of the same molecule?
The median effective dose was 100 mg/kg.

And the “reduction in 5-HT biosynthesis (based on urinary 5-HIAA)” value ([11]; PAH rat models, at median effective dose 100 mg/kg QD)?
Its value is roughly 35%.

What about the “overall incidence of GI-related AEs” value ([12]; QD group (800 mg QD), 14 days) of the same molecule?
The value was 78%.

And the tolerability ([12]; both dose regimens (800 mg QD, 400 mg BID), 14 days)?
Its tolerability is “generally well-tolerated”.

What about the “overall incidence of GI-related AEs” value ([12]; divided dose group (400 mg BID), 14 days) of the same molecule?
Its value is 33%.

What about the treatment-related withdrawals ([12]; either cohort) of the same molecule?
Its treatment-related withdrawals is “no treatment-related withdrawals”.
